Measurements as given in article PMC11285371 (Journal of medicinal chemistry, 2023).
“And” between values parts separate entries of the source, which are not always exact repeats. Equal entries are not always repeated. “Also recorded” adds a separate entry of the source.

Experiments:
[1] = test system: drug-tolerant Mtb persisters; format: cell-based, Mycobacterium tuberculosis
15 mammalian cell lines = conditions: cited from earlier work
[2] = test system: Cas1 glioblastoma cell line; conditions: cited from earlier work
[3] = cited from earlier work
TGFBR1 [4] = target: T1, TGFBR1 (Homo sapiens, UniProt P36897); test: TGFBR1 DiscoverX KINOMEscan binding assay
T1 sequence (P36897 34-503): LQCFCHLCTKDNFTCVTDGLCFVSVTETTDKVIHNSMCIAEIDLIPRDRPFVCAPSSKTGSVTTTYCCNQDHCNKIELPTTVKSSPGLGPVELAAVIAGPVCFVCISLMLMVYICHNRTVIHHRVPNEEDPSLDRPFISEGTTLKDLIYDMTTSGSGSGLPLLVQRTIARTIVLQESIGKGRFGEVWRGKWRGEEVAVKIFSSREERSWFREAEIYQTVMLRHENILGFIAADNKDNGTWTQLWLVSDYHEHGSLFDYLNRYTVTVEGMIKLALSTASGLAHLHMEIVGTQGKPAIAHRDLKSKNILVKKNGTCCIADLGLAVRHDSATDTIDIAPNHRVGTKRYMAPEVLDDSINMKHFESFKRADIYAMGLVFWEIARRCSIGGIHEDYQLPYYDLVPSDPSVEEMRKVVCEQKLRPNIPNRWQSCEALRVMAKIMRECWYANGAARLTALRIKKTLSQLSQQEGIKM

[5] = 0.5 h
Mtb H37Rv::luxCDAB = format: cell-based, Mycobacterium tuberculosis
in vivo = conditions: CD1, mouse, po, 10 mg/kg, T1/2
192 human kinases = conditions: 10 μM, K192 NanoBRET panel
TGFBR1 [6] = target: T1, TGFBR1; format: biochemical
[7] = test system: Mtb H37Rv strain expressing GFP; test: microbe, parasite or virus in culture; format: cell-based; conditions: Mycobacterium tuberculosis

Structure (SMILES)	metabolic stability in mouse liver microsomes (in words) [5]	activity in the Mtb assay (in words) (Mtb H37Rv::luxCDAB)	further results
Cc1cccc(-c2nc(Nc3ccncc3)c3ccccc3n2)n1 [AQA]	–	–	killing of persisters (cfu, in words) [1]: further reduction of viable bacteria; also recorded: full activity against persisters; toxicity against mammalian cell lines (in words) (15 mammalian cell lines): minimal toxicity; toxicity against Cas1 glioblastoma cell line (in words) [2]: moderate toxicity; acute toxicity (in words) ([3]; 5 mg/kg p.o. in rats): no acute toxicity; bioavailability (in words) ([3]; 5 mg/kg p.o. in rats): poor; oral bioavailability (in words) ([3]; rats): modest oral bioavailability
CC[C@@H](CO)NCCN[C@@H](CC)CO [EMB, ethambutol]	–	–	killing of persisters (cfu, in words) [1]: did not increase the level of killing by RIF and INH further
Cc1cccc(-c2nc(Nc3ccc4nc(C)sc4c3)c3ccccc3n2)n1 [compound 7]	very low metabolic stability	–	TGFBR1 binding activity (in words) (TGFBR1 [4]): lost activity against TGFBR1
Cc1cccc(-c2nc(Nc3ccc4c(c3)ncn4C)c3ccccc3n2)n1 [compound 10]	–	–	antibacterial activity against nonreplicating Mtb (in words, relative to AQA) (Mtb H37Rv::luxCDAB): reduced bactericidal activity
Cc1cccc(-c2nc(Nc3ccc4[nH]ncc4c3)c3ccccc3n2)n1 [compound 11]	very low metabolic stability	–	–
Cc1cccc(-c2nc(Nc3ccc4c(cnn4C)c3)c3ccccc3n2)n1 [compound 12]	very low metabolic stability	–	–
Cc1cccc(-c2nc(Nc3ccc4nn[nH]c4c3)c3ccccc3n2)n1 [compound 14]	–	–	antibacterial activity against nonreplicating Mtb (in words, relative to AQA) (Mtb H37Rv::luxCDAB): reduced bactericidal activity
Cc1cccc(-c2nc(Nc3ccc4nn(C)nc4c3)c3ccccc3n2)n1 [compound 16]	–	–	half-life (in vivo): > 3 h
Cc1cccc(-c2nc(Nc3ccc4nnn(C)c4c3)c3ccccc3n2)n1 [compound 17]	very low metabolic stability	–	–
Cc1cccc(-c2nc(Nc3ccc4ccsc4c3)c3ccccc3n2)n1 [compound 22]	very low metabolic stability	–	–
Clc1cccc(-c2nc(Nc3ccncc3)c3ccccc3n2)n1 [compound 25]	comparable	retained potent antibacterial activity; also recorded: matched the activity of AQA in the Mtb assay	–
Fc1cccc(-c2nc(Nc3ccncc3)c3ccccc3n2)n1 [compound 26]	–	reduced activity	–
FC(F)(F)c1cccc(-c2nc(Nc3ccncc3)c3ccccc3n2)n1 [compound 27]	–	reduced activity	–
COc1cccc(-c2nc(Nc3ccncc3)c3ccccc3n2)n1 [compound 28]	–	greatly reduced activity	–
c1ccc(-c2nc(Nc3ccncc3)c3ccccc3n2)nc1 [compound 29]	comparable	reduced activity	–
c1cncc(-c2nc(Nc3ccncc3)c3ccccc3n2)c1 [compound 30]	–	inactive	–
c1ccc2c(Nc3ccncc3)nc(-c3cnccn3)nc2c1 [compound 31]	–	greatly reduced Mtb activity	–
COc1cncc(-c2nc(Nc3ccncc3)c3ccccc3n2)n1 [compound 32]	–	greatly reduced Mtb activity	–
c1cnc(-c2nc(Nc3ccncc3)c3ccccc3n2)nc1 [compound 33]	–	greatly reduced Mtb activity	–
Cc1csc(-c2nc(Nc3ccncc3)c3ccccc3n2)n1 [compound 39]	–	lost activity against Mtb	–
COc1ccc2nc(-c3cccc(C)n3)nc(Nc3ccncc3)c2c1 [compound 40]	improved metabolic stability	retained both potent bactericidal activity and TGFBR1 enzyme inhibition at 1 and 10 μM; also recorded: matched the activity of AQA in the Mtb assay	–
Cc1cccc(-c2nc(Nc3ccncc3)c3cc(O)ccc3n2)n1 [compound 41]	improved metabolic stability	less active	–
COc1ccc2c(Nc3ccncc3)nc(-c3cccc(C)n3)nc2c1 [compound 42]	–	less active	–
Cc1cccc(-c2nc(Nc3ccncc3)c3ccn(C)c3n2)n1 [compound 43]	–	retained potent Mtb activity; also recorded: matched the activity of AQA in the Mtb assay; also recorded: low-micromolar activity against nonreplicating Mtb	additional human kinases on which the compound was active (192 human kinases): 7/192
Cc1cccc(-c2nc(C)cc(Nc3ccncc3)n2)n1 [compound 44]	–	retained partial Mtb and TGFBR1 activity	TGFBR1 enzyme inhibition (in words) (TGFBR1 [6]): retained partial Mtb and TGFBR1 activity
Cc1cccc(-c2cc3ccccc3c(Nc3ccncc3)n2)n1 [compound 45]	–	weaker activity	–
Cc1cccc(-c2cc(Nc3ccncc3)c3ccccc3n2)n1 [compound 46]	–	weaker activity	–
NNC(=O)c1ccncc1 [isoniazid]	–	–	MIC [7]: 3.6 µM and 0.5 µg/mL
